In ChEMBL document CHEMBL5143519, “Exploring disordered loops in DprE1 provides a functional site to combat drug-resistance in Mycobacterium strains” (Eur J Med Chem, 2022) one finds IC50, MIC and Activity data, which are given here for 15 compounds.

Assay [1] deals with T1, Decaprenylphosphoryl-beta-D-ribose oxidase (Mycobacterium tuberculosis (strain ATCC 25618 / H37Rv), UniProt P9WJF1).
T1 sequence (P9WJF1 whole entry): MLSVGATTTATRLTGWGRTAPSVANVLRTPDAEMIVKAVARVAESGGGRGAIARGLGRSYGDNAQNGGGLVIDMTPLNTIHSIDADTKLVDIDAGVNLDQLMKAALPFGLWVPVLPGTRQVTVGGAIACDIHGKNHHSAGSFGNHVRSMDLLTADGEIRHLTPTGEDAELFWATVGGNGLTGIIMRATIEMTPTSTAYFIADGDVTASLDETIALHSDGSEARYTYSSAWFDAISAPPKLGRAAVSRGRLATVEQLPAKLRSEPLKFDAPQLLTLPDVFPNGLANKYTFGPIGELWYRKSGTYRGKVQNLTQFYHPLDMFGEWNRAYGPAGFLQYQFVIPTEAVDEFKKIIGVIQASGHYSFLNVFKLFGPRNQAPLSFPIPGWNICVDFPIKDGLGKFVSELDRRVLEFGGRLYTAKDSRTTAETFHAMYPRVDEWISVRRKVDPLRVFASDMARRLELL
In words: Inhibition of Mycobacterium tuberculosis wild type DprE1 expressed in Escherichia coli BL21 DE3 assessed as formation of resorufin using FPR as substrate incubated for 10 mins by Amplex Red dye microplate assay.

The test system of assay [2] is Mycobacterium tuberculosis. In words: Antimycobacterial activity against Mycobacterium tuberculosis H37Rv assessed as inhibition of bacterial growth incubated for 7 days by microplate alamar blue assay. The assay is classed as functional. To be noted: 168 h, time 7 day. In general terms: The colour change of resazurin is a common sign of viable cells or microbes.
Assay [3] has as its system Mycolicibacterium smegmatis. In words: Antimycobacterial activity against Mycobacterium smegmatis mc2155 assessed as inhibition of bacterial growth incubated for 7 days by microplate alamar blue assay. Format: functional. To be noted: mc2155, 168 h, time 7 day.
Assay [4] deals with Mycobacterium tuberculosis. In words: Antimycobacterial activity against Mycobacterium tuberculosis H37Rv infected in mouse macrophage J774A.1 cell assessed as reduction in bacterial colony forming units incubated for 21 days. The assay is classed as functional. To be noted: time 21 day.
Assay [5] relates to Mycobacterium tuberculosis. Nature of the assay: Antimycobacterial activity against Mycobacterium tuberculosis H37Rv assessed as reduction in bacterial colony forming units at 20 times MIC concentration measured after 21 days by time kill assay. Format: functional. To be noted: time 21 day.
In assay [6] the test system is Mycolicibacterium smegmatis. Nature of the assay: Antimycobacterial activity against Mycobacterium smegmatis wild type DprE1 assessed as inhibition of bacterial growth incubated for 7 days by microplate alamar blue assay. The assay is classed as functional. To be noted: 168 h, time 7 day.
Assay [7] relates to Mycobacterium tuberculosis. Nature of the assay: Antimycobacterial activity against Mycobacterium tuberculosis H37Rv assessed as reduction in bacterial colony forming units at 20 times MIC concentration measured after 7 days by time kill assay. Particulars: time 7.0 day. Format: functional, organism-based.

Converted amounts (≈) assume the structure as drawn. The source made the active and inactive calls.

Consider `N#Cc1ccc(C(=O)Nc2sccc2C(=O)NC(=O)OCC2CC2)cc1`, for which the IC50 (in general, the concentration at which inhibition is half-maximal) in assay [1] was 18.9 µM. Besides, the MIC (in general, the smallest concentration in the dilution series that meets the test's criterion for growth inhibition) in assay [2] was over 250 µM.

Take `CO[C@H]1/C=C/O[C@@]2(C)Oc3c(C)c(O)c4c(O)c(c(/C=N/N5CCN(C)CC5)c(O)c4c3C2=O)NC(=O)/C(C)=C\C=C\[C@H](C)[C@H](O)[C@@H](C)[C@@H](O)[C@@H](C)[C@H](OC(C)=O)[C@@H]1C` [RIFAMPIN]: the MIC in assay [3] was determined as 0.35 µM (≈ 0.288 µg/mL); in assay [2] it was 0.11 µM (≈ 0.0905 µg/mL). Besides, the Activity in assay [4] is 1.1 log10CFU; in assay [5], 3 log10CFU/ml.

`O=C(NC(=O)c1ccsc1NC(=O)c1nc2ccccc2s1)OCC1CCCC1`: the IC50 in assay [1] was 22.4 µM. The minimal inhibitory concentration (MIC) in assay [2] is over 250 µM.

Consider `CCOC(=O)NC(=O)c1ccsc1NC(=O)c1ccc(C(C)=O)cc1`, for which the IC50 in assay [1] turned out to be 36.4 µM. In assay [2], the MIC is over 300 µM.

On to `CCOC(=O)NC(=O)c1ccsc1NC(=O)c1ccc(C#N)cn1`, for which, in assay [1], the IC50 stood at 41.2 µM. Besides, the minimal inhibitory concentration (MIC) in assay [2] was over 300 µM.

As to `CCOC(=O)NC(=O)c1ccsc1NC(=O)c1nc2ccccc2s1`, the IC50 in assay [1] was found to be 0.053 µM. The MIC in assay [3] was 33.2 µM (≈ 12.5 µg/mL); in assay [2], 1.68 µM (≈ 0.631 µg/mL); in assay [6], 0.23 µM (≈ 0.0863 µg/mL). Also, the values for the Activity in assay [4] and in assay [5] were 0.6 log10CFU and 3 log10CFU/ml, respectively.

On to `CCOC(=O)NC(=O)c1ccsc1NC(=O)c1nc2cnccc2s1`, for which the MIC in assay [6] was 0.089 µM (≈ 0.0335 µg/mL).

With `CC(=O)c1ccc(C(=O)Nc2sccc2C(=O)NC(=O)OCC2CC2)cc1`, the IC50 in assay [1] was determined as 1.21 µM. Further, the MIC in assay [2] came out at 51.8 µM (≈ 20 µg/mL).

On to `N#Cc1ccc(C(=O)Nc2sccc2C(=O)NC(=O)OCC2CC2)nc1`, for which, in assay [1], the IC50 was determined as 11.5 µM. The MIC in assay [2] amounted to 216 µM (≈ 79.8 µg/mL).

On to `CCOC(=O)NC(=O)c1ccsc1NC(=O)c1ccc(C#N)cc1`, for which the concentration for half-maximal inhibition (IC50) in assay [1] was over 64 µM. The MIC in assay [2] was over 300 µM.

Turning to `O=C(NC(=O)c1ccsc1NC(=O)c1nc2ccccc2s1)OC1CCC1`, the IC50 in assay [1] is 18.6 µM. Moreover, in assay [2], the MIC was over 250 µM.

Take `CCOC(=O)NC(=O)c1cc(F)sc1NC(=O)c1nc2ccccc2s1`: in assay [6], the MIC turned out to be 0.046 µM (≈ 0.0181 µg/mL).

With `O=C(NC(=O)c1ccsc1NC(=O)c1nc2ccccc2s1)OCC1CCCCC1`, the IC50 in assay [1] was over 64 µM. Also, in assay [2], the minimal inhibitory concentration (MIC) is over 250 µM.

As for `O=C(NC(=O)c1ccsc1NC(=O)c1nc2ccccc2s1)OCC1CC1`, the IC50 in assay [1] stood at 0.01 µM. For the same compound, in assay [7], the outcome was Active. Also, the MIC was determined as 12.4 µM (≈ 4.99 µg/mL) in assay [3] and 0.77 µM (≈ 0.309 µg/mL) in assay [2]. The Activity is listed as 1.1 log10CFU in assay [4] and 3 log10CFU/ml in assay [5].

As to `O=C(NC(=O)c1ccsc1NC(=O)c1nc2ccccc2s1)OCC1CCC1`, the IC50 in assay [1] amounted to 0.098 µM. Besides, the figures for the MIC in assay [3] and in assay [2] were 24.1 µM (≈ 9.99 µg/mL) and 3.01 µM (≈ 1.25 µg/mL), respectively. Also, in assay [4], the Activity is given as 0.9 log10CFU.
